Reference: patent US10537563B2, “Methods for treating ocular disease using inhibitors of CSF-1R” (NOVARTIS AG, priority 2016, dated 2020)

Key:
[1] = biological target: Cdk7 cyclinH MAT1 (Homo sapiens, UniProt P50613); experiment: In vitro kinase assay (Table 1); format: biochemical
[2] = biological target: Ck1gamma2 (Homo sapiens, UniProt P78368); experiment: In vitro kinase assay (Table 1); format: biochemical
[3] = biological target: Ck2alpha1 (Homo sapiens, UniProt P68400); experiment: In vitro kinase assay (Table 1); format: biochemical
[4] = biological target: COT (Homo sapiens, UniProt P41279); experiment: In vitro kinase assay (Table 1); format: biochemical
[5] = biological target: Insulin RK (Homo sapiens, UniProt P06213); experiment: In vitro kinase assay (Table 1); format: biochemical
[6] = biological target: Lck (Homo sapiens, UniProt P06239); experiment: In vitro kinase assay (Table 1); format: biochemical
[7] = biological target: mut_bRaf_V599E (Homo sapiens, UniProt P15056, V600E); experiment: In vitro kinase assay (Table 1); format: biochemical
Sequence of mut_bRaf_V599E (P15056 whole entry V600E): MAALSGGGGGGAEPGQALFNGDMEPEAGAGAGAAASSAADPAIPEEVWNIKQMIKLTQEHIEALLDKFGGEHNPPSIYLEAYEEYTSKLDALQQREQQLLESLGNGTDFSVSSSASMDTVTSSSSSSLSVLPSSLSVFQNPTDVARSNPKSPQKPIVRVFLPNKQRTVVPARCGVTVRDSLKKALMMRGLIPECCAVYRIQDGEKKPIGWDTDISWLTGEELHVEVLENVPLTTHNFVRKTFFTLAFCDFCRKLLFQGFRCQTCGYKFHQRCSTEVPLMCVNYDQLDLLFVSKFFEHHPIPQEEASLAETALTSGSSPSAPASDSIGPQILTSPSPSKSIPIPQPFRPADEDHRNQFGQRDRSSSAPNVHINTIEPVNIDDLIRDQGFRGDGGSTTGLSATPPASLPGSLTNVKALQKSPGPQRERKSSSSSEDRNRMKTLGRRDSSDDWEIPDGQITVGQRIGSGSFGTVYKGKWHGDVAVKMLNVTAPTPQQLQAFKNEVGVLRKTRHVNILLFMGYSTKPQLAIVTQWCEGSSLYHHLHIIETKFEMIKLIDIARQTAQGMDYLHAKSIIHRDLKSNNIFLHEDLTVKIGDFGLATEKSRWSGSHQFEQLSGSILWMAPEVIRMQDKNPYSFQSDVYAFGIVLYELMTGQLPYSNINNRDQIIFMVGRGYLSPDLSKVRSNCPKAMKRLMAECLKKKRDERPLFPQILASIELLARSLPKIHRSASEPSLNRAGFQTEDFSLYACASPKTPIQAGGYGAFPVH

[8] = biological target: PIK3Calpha (Homo sapiens, UniProt P42336); experiment: In vitro kinase assay (Table 1); format: biochemical
[9] = biological target: PIK4Cbeta (Homo sapiens, UniProt Q9UBF8); experiment: In vitro kinase assay (Table 1); format: biochemical
[10] = biological target: Ron (Homo sapiens, UniProt Q04912); experiment: In vitro kinase assay (Table 1); format: biochemical
[11] = biological target: TAK1 (Homo sapiens, UniProt O43318); experiment: In vitro kinase assay (Table 1); format: biochemical
[12] = biological target: TRKC (Homo sapiens, UniProt Q16288); experiment: In vitro kinase assay (Table 1); format: biochemical
[13] = biological target: T1, CSF_1_RK (h) (Homo sapiens, UniProt P07333); experiment: Kinase profiling at Invitrogen; format: biochemical
T1 construct: purchased Invitrogen
T1 sequence (P07333 20-972): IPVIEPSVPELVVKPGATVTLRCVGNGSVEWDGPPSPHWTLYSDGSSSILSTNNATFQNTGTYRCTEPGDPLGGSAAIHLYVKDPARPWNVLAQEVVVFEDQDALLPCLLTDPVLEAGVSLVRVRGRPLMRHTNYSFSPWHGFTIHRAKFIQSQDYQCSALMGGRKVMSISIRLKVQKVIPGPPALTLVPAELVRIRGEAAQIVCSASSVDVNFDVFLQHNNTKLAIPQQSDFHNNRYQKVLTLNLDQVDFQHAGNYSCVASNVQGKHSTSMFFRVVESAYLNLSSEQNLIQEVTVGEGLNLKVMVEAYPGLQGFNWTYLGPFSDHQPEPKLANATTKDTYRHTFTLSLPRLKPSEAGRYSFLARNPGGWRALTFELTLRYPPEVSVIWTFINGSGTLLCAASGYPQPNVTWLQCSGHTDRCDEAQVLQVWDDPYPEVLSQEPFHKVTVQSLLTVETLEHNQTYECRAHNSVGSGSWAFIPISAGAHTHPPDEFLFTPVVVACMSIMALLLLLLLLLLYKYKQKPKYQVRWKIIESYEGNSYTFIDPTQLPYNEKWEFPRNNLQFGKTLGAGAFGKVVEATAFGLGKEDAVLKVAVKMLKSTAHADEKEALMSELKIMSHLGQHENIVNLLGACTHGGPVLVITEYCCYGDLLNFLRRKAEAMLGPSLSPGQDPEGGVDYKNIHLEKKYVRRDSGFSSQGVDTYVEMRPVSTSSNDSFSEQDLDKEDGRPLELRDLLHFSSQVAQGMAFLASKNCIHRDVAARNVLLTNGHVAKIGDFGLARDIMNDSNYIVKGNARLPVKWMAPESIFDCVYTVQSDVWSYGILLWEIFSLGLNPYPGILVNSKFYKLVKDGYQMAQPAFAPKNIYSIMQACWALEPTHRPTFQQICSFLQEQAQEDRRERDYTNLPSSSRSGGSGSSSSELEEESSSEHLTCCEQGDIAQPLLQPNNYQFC

[14] = biological target: T2, PDGFRKalpha (h) (Homo sapiens, UniProt P16234); experiment: Kinase profiling at Invitrogen; format: biochemical
T2 construct: purchased Invitrogen
T2 sequence (P16234 24-1089): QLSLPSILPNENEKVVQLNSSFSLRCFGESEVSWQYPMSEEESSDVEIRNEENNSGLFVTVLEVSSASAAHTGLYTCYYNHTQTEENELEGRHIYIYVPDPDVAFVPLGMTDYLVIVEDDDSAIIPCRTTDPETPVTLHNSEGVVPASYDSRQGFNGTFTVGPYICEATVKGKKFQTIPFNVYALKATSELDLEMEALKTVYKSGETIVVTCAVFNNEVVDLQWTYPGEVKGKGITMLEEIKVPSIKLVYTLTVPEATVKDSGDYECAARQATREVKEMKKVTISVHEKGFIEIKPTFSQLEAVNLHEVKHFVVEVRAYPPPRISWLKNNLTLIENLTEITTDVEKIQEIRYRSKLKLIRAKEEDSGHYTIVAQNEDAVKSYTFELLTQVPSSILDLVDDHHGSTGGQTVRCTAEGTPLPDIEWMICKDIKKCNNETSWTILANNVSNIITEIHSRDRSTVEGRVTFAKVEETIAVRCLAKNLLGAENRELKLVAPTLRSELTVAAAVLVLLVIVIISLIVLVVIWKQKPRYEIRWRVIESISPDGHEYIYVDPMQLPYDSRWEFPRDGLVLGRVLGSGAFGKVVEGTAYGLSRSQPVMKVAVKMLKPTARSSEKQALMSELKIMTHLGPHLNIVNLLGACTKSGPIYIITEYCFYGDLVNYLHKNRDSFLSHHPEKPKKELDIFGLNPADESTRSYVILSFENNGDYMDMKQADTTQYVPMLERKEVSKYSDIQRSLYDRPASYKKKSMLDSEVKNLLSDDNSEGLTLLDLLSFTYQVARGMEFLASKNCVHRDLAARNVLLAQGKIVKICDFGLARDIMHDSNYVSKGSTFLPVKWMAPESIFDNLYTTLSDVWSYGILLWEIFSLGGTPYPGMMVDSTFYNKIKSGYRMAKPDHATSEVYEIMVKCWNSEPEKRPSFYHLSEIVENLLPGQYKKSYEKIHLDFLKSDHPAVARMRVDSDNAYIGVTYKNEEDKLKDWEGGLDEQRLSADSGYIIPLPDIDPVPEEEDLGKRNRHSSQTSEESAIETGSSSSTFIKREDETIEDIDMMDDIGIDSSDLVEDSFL

[15] = biological target: T3, Khs1 (h) (Homo sapiens, UniProt Q9Y4K4); experiment: Kinase profiling at Invitrogen; format: biochemical
T3 construct: purchased Invitrogen
T3 sequence (Q9Y4K4 whole entry): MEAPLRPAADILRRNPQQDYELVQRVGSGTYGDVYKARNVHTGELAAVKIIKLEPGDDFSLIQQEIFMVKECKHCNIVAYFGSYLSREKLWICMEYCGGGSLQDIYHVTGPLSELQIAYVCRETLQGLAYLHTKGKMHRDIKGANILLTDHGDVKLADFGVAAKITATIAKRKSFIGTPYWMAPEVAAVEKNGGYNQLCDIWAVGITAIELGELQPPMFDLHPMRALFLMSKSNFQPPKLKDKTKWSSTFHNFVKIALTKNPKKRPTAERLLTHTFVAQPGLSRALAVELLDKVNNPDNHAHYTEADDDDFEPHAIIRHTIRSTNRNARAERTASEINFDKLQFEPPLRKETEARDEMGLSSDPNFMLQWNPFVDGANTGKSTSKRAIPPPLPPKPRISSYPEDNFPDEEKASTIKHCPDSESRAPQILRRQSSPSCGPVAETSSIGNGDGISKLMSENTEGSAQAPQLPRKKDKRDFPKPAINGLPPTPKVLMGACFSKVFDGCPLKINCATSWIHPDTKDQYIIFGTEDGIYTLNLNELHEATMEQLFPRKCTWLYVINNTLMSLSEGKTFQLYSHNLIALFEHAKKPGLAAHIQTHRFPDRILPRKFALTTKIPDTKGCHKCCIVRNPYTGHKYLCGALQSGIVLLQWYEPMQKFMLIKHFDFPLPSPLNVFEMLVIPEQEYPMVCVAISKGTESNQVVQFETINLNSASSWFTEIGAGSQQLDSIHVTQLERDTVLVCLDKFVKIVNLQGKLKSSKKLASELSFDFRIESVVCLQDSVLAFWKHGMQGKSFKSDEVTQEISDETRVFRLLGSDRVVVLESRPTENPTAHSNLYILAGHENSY

[16] = biological target: T4, Met (h) (Homo sapiens, UniProt P08581); experiment: Kinase profiling at Invitrogen; format: biochemical
T4 construct: purchased Invitrogen
T4 sequence (P08581 25-1390): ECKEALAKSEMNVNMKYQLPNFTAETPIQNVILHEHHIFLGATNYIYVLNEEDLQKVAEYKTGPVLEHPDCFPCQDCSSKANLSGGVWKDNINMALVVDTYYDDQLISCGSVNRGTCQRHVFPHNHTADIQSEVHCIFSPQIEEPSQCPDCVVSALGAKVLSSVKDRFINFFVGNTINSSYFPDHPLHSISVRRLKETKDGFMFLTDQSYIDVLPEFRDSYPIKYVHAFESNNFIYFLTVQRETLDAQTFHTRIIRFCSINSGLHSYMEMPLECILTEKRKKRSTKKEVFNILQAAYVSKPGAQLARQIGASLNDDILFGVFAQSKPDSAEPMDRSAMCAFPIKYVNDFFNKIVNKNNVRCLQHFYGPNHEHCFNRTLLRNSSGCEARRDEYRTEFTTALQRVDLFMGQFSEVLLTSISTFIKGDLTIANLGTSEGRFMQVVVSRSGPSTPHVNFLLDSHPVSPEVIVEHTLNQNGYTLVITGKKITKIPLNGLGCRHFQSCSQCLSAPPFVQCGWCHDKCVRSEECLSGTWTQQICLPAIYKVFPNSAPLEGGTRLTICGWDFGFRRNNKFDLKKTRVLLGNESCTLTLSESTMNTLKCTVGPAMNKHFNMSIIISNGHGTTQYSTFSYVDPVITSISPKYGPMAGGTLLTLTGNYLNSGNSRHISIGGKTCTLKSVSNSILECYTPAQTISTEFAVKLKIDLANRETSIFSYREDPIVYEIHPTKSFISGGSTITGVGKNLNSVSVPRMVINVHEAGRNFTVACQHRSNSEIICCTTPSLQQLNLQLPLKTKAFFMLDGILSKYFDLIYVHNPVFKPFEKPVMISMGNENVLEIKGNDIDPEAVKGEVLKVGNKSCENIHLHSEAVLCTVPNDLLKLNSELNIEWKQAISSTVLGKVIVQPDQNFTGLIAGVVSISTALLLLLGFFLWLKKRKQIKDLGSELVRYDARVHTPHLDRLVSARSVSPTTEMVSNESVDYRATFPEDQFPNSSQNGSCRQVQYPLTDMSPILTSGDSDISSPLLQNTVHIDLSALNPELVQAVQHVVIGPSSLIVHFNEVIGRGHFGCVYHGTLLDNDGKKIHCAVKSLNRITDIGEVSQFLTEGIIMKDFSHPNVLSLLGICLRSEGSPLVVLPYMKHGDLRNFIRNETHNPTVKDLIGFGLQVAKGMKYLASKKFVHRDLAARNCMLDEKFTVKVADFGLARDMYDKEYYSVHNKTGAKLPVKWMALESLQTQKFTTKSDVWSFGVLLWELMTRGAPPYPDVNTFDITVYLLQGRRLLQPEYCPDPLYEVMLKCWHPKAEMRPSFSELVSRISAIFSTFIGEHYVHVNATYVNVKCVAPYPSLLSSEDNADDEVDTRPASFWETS

[17] = biological target: T5, Syk (h) (Homo sapiens, UniProt P43405); experiment: Kinase profiling at Invitrogen; format: biochemical
T5 construct: purchased Invitrogen

[18] = biological target: BaF-PTC3-RET (Homo sapiens, UniProt P07949); experiment: BaF3 proliferation assay; format: cell-based, murine
[19] = biological target: T6, BaF-Tel-KDR (Homo sapiens, UniProt P35968); experiment: BaF3 proliferation assay; format: cell-based, murine
T6 construct: fused on or other part: P41212 (Transcription factor ETV6)

[20] = biological target: T7, BAF/Tel-KDR-Q4/sACP (Homo sapiens, UniProt P35968); experiment: BaF3 proliferation assay; format: cell-based, murine
T7 construct: fused on or other part: P41212 (Transcription factor ETV6)

[21] = biological target: T8, BAF/Tel-FLT1-Q1/sACP (Homo sapiens, UniProt P17948); experiment: BaF3 proliferation assay; format: cell-based, murine
T8 construct: fused on or other part: P41212 (Transcription factor ETV6)

[22] = biological target: T9, BAF/Tel-TRKC-Q2/sACP (Homo sapiens, UniProt Q16288); experiment: BaF3 proliferation assay; format: cell-based, murine
T9 construct: fused on or other part: P41212 (Transcription factor ETV6)

[23] = biological target: T10, BAF/Tel-TRKA-Q.3/sACP (Homo sapiens, UniProt P04629); experiment: BaF3 proliferation assay; format: cell-based, murine
T10 construct: fused on or other part: P41212 (Transcription factor ETV6)

[24] = biological target: T11, BAF/Tel-InsR-Q.4/sACP (Homo sapiens, UniProt P06213); experiment: BaF3 proliferation assay; format: cell-based, murine
T11 construct: fused on or other part: P41212 (Transcription factor ETV6)

[25] = biological target: T12, BAF/Tel-IGF1R-FL-N.1/sACP (Homo sapiens, UniProt P08069); experiment: BaF3 proliferation assay; format: cell-based, murine
T12 construct: BAF/Tel-IGF1R-FL- N.1/sACP; fused on or other part: P41212 (Transcription factor ETV6)

[26] = biological target: T13, BAF/Tel-BMX-1.2/sACP (Homo sapiens, UniProt P51813); experiment: BaF3 proliferation assay; format: cell-based, murine
T13 construct: fused on or other part: P41212 (Transcription factor ETV6)

[27] = test system: all other BaF3 cell lines; experiment: BaF3 proliferation assays, all other cell lines; format: cell-based, murine; conditions: Mus musculus, read-out: Cellular EC50, all other BaF3 cell lines
[28] = test system: MCSF-dependent proliferation; experiment: MCSF-dependent proliferation; format: cell-based; conditions: read-out: MCSF-dependent proliferation cellular EC50
[29] = test system: human macrophages; experiment: In vitro survival of human macrophages (CellTiter-Glo); format: cell-based; conditions: 1 and 10 μM
Method: (§1) Freshly isolated human PBMCs were used to purify human monocytes by negative selection using an indirect magnetic labeling system. […] Soluble factors such as cytokines (VEGFa, IL-6 etc.) and chemokines (IL-8, MCP-1, MMP9 etc.) in the culture supernatant were measured using commercial ELISA kits. The in vitro survival of human macrophages was measured using a commercially available CellTiter-Glo® system. Most observed results were repeated in multiple donors (n>5).

[30] = test system: CD163; experiment: CD163 expression in M2c macrophages; format: cell-based, human
Method: as §1

[31] = test system: CSF-1 receptor; experiment: CSF-1 receptor expression on human monocytes; format: cell-based; conditions: day 1 to day 3
Method: as §1

[32] = test system: MMP-9; experiment: MMP-9 production by human monocytes (ELISA); format: cell-based; conditions: Monocyte
Method: as §1

[33] = test system: MCP-1; experiment: MCP-1 production by human monocytes (ELISA); format: cell-based; conditions: Monocyte
Method: as §1

With `CNC(=O)c1cc(Oc2ccc3nc(NC4CCCCC4O)sc3c2)ccn1` (stereo not shown) [Compound (I)] the IC50 [1] was > 10 µM, the IC50 [2] was > 10 µM and the IC50 [3] was > 10 µM. The IC50 [4] was > 25 µM, the IC50 [5] was > 10 µM and the IC50 [6] was > 10 µM. The IC50 [7] was > 25 µM, the IC50 [8] was > 25 µM and the IC50 [9] was > 25 µM. The IC50 [10] was > 10 µM, the IC50 [11] was > 10 µM and the IC50 [12] was > 10 µM. The inhibition at 0.5 µM ([13]; read-out: % inhibition @ 0.5 μM, CSF_1_RK (h)) was 97%, the inhibition at 5 µM ([13]; read-out: % inhibition @ 5 μM, CSF_1_RK (h)) was 99% and the inhibition at 20 µM ([13]; read-out: % inhibition @ 20 μM, CSF_1_RK (h)) was 95%. For the same molecule, the inhibition at 0.5 µM ([14]; read-out: % inhibition @ 0.5 μM, PDGFRKalpha (h)) was 28%, the inhibition at 5 µM ([14]; read-out: % inhibition @ 5 μM, PDGFRKalpha (h)) was 41% and the inhibition at 20 µM ([14]; read-out: % inhibition @ 20 μM, PDGFRKalpha (h)) was 55%. The inhibition at 0.5 µM ([15]; read-out: % inhibition @ 0.5 μM, Khs1 (h)) was 15%, the inhibition at 5 µM ([15]; read-out: % inhibition @ 5 μM, Khs1 (h)) was 27% and the inhibition at 20 µM ([15]; read-out: % inhibition @ 20 μM, Khs1 (h)) was 52%. It also gave an inhibition at 0.5 µM ([16]; read-out: % inhibition @ 0.5 μM, Met (h)) of 0%, an inhibition at 5 µM ([16]; read-out: % inhibition @ 5 μM, Met (h)) of 4% and an inhibition at 20 µM ([16]; read-out: % inhibition @ 20 μM, Met (h)) of 37%. It also gave an inhibition at 0.5 µM ([17]; read-out: % inhibition @ 0.5 μM, Syk (h)) of 32%, an inhibition at 5 µM ([17]; read-out: % inhibition @ 5 μM, Syk (h)) of 36% and an inhibition at 20 µM ([17]; read-out: % inhibition @ 20 μM, Syk (h)) of -15%. For the same molecule, the EC50 [18] was > 10 µM, the EC50 [19] was > 10 µM and the EC50 [20] was > 10 µM. The EC50 [21] was > 10 µM, the EC50 [22] was > 10 µM and the EC50 [23] was > 10 µM. For the same molecule, the EC50 [24] was > 10 µM, the EC50 [25] was > 10 µM and the EC50 [26] was > 10 µM. For the same molecule, the EC50 [27] was > 10 µM, the EC50 [28] was < 0.071 µM and the “viability of human macrophages (CTG values and light microscope pictures)” value [29] was “decreased the viability”. For the same molecule, the “CD163 expression in M2c macrophages” value [30] was “no Compound (I) dose effect”, the “CSF-1 receptor expression on human monocytes” value [31] was “increased” and the inhibition at 0.05 µM [32] was 30 to 50%. For the same molecule, the inhibition at 0.05 µM [33] was 30 to 70%.
